Assay results from ChEMBL document CHEMBL4842309, “(9βH)- and 17-Nor-Pimaranes from Icacina oliviformis” (J Nat Prod, 2021).
Calls of active or inactive are those of the source. No cut-off for these calls is given here.

Experiments:
Format in all cases: functional, cell-based
MDA-MB-435 = assay: Cytotoxicity against human MDA-MB-435 cells assessed as inhibition of cell proliferation measured after 72 hrs by CellTiter 96 AQueous One Solution Cell Proliferation assay; details: for IC50: MDA-MB-435, 72 h
MDA-MB-231 = assay: Cytotoxicity against human MDA-MB-231 cells assessed as inhibition of cell proliferation measured after 72 hrs by CellTiter 96 AQueous One Solution Cell Proliferation assay; details: for IC50: MDA-MB-231, 72 h
OVCAR-3 = assay: Cytotoxicity against human OVCAR-3 cells assessed as inhibition of cell proliferation measured after 72 hrs by CellTiter 96 AQueous One Solution Cell Proliferation assay; details: for IC50: OVCAR-3, 72 h
HT-29 = assay: Cytotoxicity against human HT-29 cells measured after 72 hrs by CellTiter 96 AQueous One Solution Cell Proliferation assay; details: HT-29, 72 h
A2780 = assay: Cytotoxicity against human A2780 cells assessed as reduction in cell viability incubated for 72 hrs by MTT assay; details: A2780, 72 h
HL-60 = assay: Cytotoxicity against human HL-60 cells assessed as reduction in cell viability incubated for 72 hrs by MTT assay; details: HL-60, 72 h
PC-3 = assay: Cytotoxicity against human PC-3 cells assessed as reduction in cell viability incubated for 72 hrs by MTT assay; details: PC-3, 72 h
HepG2 = assay: Cytotoxicity against human HepG2 cells assessed as reduction in cell viability incubated for 72 hrs by MTT assay; details: HepG2, 72 h
SF-295 = assay: Cytotoxicity against human SF-295 cells assessed as reduction in cell viability incubated for 72 hrs by MTT assay; details: SF-295, 72 h
HCT-116 = assay: Cytotoxicity against human HCT-116 cells assessed as reduction in cell viability incubated for 72 hrs by MTT assay; details: HCT-116, 72 h

C[C@@]1([C@H](O)CO)CC[C@@H]2C(=C[C@H]3OC(=O)[C@@]4(C)CCC[C@@]2(C)[C@@H]34)C1
Activity (MDA-MB-435): inactive | Activity (MDA-MB-231): inactive | Activity (OVCAR-3): inactive

COc1cc2c(c3occc13)C[C@H]1OC(=O)[C@]3(C)[C@H]1[C@@]21CO[C@]3(O)[C@@H](O[C@@H]2O[C@H](CO)[C@@H](O)[C@H](O)[C@H]2O)C1
Activity (MDA-MB-435): inactive | Activity (MDA-MB-231): inactive | Activity (OVCAR-3): inactive

C[C@@]12CC[C@@H]3C(=C[C@H]4OC(=O)[C@]5(C)[C@H]4[C@]34CC[C@@]5(O)OC4)[C@]1(O)OC[C@H]2O
IC50 (MDA-MB-435): 2.8 µM | IC50 (MDA-MB-231): 3.4 µM | IC50 (OVCAR-3): 5.6 µM | IC50 (HT-29): 4.2 µM | IC50 (A2780): 1.7 µM

C[C@@]1(C(=O)CO)CC[C@@H]2C(=C[C@H]3OC(=O)[C@]4(C)[C@H]3[C@]23CC[C@@]4(O)OC3)C1
IC50 (MDA-MB-435): 2.3 µM | IC50 (MDA-MB-231): 2.7 µM | IC50 (OVCAR-3): 4.4 µM | IC50 (A2780): 3.9 µM | IC50 (HL-60): 2.1 µM | IC50 (PC-3): 3.6 µM | IC50 (HepG2): 5.7 µM | IC50 (SF-295): 2.2 µM | IC50 (HCT-116): 1.7 µM

COc1cc2c(c3occc13)C[C@@H](O)[C@@H]1[C@]23CC[C@@H](O[C@@H]2O[C@H](CO)[C@@H](O)[C@H](O)[C@H]2O)[C@@]1(C)C(=O)OC3
Activity (MDA-MB-435): inactive | Activity (MDA-MB-231): inactive | Activity (OVCAR-3): inactive

CO[C@@]12OC[C@@H](O)[C@]1(C)CC[C@@H]1C2=C[C@H]2OC(=O)[C@]3(C)[C@H]2[C@]12CC[C@@]3(O)OC2
IC50 (MDA-MB-435): 3.6 µM | IC50 (MDA-MB-231): 4 µM | IC50 (OVCAR-3): 6.3 µM
